Experimental data reported in US6660769B1, “N substituted 3-amino-2,2-di-c-alkyl-1,4-butyrolactones and 1,4-thiobutyrolactones for use as promoter of γ-aminobutyric acid activity and for treating nervous disorders and preparation method” (priority 1999, dated 2003).

Assays:
[1] = test system: GABA-A receptors comprising β2 or β3 subunits versus β1 subunit; details: Wingrove et al. 1994; cited from earlier work
[2] = target: T1, α1β2γ2 recombinant GABA-A receptors (Homo sapiens, UniProt P14867+P18507+P47870); test: cell-based; details: α1β2γ2
T1 construct: expressed in transfected cells; host or cells: Xenopus laevis oocytes injected with cRNA
T1 sequence (P47870 25-512 limits assumed, one chain of several): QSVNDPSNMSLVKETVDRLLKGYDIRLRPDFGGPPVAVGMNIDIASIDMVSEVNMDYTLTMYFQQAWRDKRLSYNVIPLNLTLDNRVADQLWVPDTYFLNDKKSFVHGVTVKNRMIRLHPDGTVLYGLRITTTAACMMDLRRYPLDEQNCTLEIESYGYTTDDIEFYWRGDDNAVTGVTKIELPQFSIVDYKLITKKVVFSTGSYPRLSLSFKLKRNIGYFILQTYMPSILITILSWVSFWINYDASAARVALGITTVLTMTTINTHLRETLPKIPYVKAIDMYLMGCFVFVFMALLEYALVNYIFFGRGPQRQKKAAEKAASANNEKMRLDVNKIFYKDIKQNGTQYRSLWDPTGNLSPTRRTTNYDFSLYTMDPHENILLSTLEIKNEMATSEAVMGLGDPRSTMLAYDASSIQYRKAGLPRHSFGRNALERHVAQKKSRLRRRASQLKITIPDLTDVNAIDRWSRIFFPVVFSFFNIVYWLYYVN
T1 sequence (P18507 40-475, one chain of several): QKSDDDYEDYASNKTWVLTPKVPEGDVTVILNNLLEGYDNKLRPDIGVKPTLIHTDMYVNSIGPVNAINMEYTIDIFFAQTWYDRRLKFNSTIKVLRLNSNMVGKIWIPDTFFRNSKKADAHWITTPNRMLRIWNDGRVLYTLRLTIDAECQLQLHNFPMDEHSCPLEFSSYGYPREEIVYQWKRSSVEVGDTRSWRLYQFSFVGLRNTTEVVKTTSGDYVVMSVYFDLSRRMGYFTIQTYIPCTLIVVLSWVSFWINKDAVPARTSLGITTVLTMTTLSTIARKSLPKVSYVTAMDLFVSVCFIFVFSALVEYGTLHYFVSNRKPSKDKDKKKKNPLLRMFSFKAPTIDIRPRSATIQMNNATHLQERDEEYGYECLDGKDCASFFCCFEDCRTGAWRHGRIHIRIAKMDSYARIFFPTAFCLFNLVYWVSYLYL

[3] = target: T2, α1β1 GABA-A recombinant receptors (Homo sapiens, UniProt P14867+P18505); test: Two-electrode voltage clamp, modulation of GABA currents in Xenopus oocytes; type: cell-based
T2 construct: expressed in transfected cells; host or cells: Xenopus laevis oocytes injected with cRNA
T2 sequence (P14867 28-456): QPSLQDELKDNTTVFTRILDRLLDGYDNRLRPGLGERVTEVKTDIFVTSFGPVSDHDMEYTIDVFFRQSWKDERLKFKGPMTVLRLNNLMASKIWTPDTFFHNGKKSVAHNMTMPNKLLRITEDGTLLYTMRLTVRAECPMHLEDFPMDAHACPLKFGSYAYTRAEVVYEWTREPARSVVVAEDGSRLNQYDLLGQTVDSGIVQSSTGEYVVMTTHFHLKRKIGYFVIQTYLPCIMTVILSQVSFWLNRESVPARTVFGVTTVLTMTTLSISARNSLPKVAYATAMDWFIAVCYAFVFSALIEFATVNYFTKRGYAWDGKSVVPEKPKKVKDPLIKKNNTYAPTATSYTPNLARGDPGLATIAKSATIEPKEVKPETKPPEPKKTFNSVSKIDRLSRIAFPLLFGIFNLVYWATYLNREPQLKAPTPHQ
T2 sequence (P18505 26-474): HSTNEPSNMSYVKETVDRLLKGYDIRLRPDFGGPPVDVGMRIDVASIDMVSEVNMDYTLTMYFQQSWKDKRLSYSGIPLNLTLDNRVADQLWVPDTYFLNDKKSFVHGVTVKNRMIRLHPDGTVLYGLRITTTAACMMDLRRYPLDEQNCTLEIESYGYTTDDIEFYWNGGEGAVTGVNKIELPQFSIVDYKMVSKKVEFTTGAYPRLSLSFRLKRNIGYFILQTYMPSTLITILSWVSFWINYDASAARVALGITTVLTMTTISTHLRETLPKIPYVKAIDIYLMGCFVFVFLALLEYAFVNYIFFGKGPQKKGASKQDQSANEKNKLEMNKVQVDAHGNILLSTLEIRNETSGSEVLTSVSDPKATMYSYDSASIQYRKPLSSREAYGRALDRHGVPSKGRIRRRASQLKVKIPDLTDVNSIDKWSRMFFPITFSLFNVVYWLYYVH
Experimental: (§1) The compounds synthesized are also studied for their ability to cause opening of the channel of the GABA-A receptor or to allosterically modulate the currents caused by GABA. For this purpose, the GABA-A recombinant receptors are expressed in Xenopus oocytes. Briefly, Xenopus laevis oocytes are prepared, injected and defolliculated and the currents are recorded in the way described (E. Sigel, J. Physiol., 1987, 386, 73 and E. Sigel, R. Baur, G. Trube, H. Möhler, P. Malherbe, Neuron, 1990, 5, 703). The oocytes are injected with 50 nl of cRNA dissolved in 5 mM of K-Hepes (pH 6.8). This solution comprises the transcripts coding for the various subunits at a concentration of 10 nM for α1, 10 nM for β2 and 50 nM for γ2. The RNA transcripts are synthesized from linearized plasmids encoding the desired protein using the message machine kit (Ambion) according to the recommendations of the manufacturers. A poly(A) tail of approximately 300 residues is added to the transcripts using yeast poly(A) polymerase (USB or Amersham). The cRNA combinations are coprecipitated from ethanol and stored at −20° C. The transcripts are quantified on agarose gels, after having been stained with the RNA stain Radiant Red (Bio-Rad), by comparing the intensities of the stainings with various amounts of molecular weight markers (RNA-Ladder, Gibco-BRL). The electrophysiological experiments are carried out by the two-electrode voltage clamp method at a holding potential of −80 mV. The medium comprises 90 mM of NaCl, 1 mM of KCl, 1 mM of MgCl2, 1 mM of CaCl2 and 10 mM of Na-Hepes (pH 7.4). GABA is applied for 20 s and a washing period of 4 min is allowed in order to provide for the complete […]. The perfusion system is cleaned between the applications of the compounds by washing with dimethyl sulfoxide to prevent contamination. The compounds are applied at a concentration of 100 microM in the absence of GABA in order to see whether they can act as channel agonists. To study the allosteric modulation, GABA is first of all applied alone and then in combination with either […] or 100 microM of compounds.
(§2) Thus, it is observed that the compound R-30 (100 μM) produces a 5 times greater stimulation of the GABA currents in the receptors comprising the β2 subunits with respect to the receptors carrying only the β1 subunit (table 4). At 10 μM, the compound R-30 produces a stimulation only in the receptors comprising the β2 subunit. The anticonvulsant loreclezole similarly enhances the activity of the GABA-A receptor by interacting with a site present on the receptors comprising the β2 subunit (and the β3 subunit) but not present on the receptors comprising the β1 subunit (P. B. Wingrove, K. A. Wafford, C. Bain, P. J. Whiting, Proc. Natl. Acad. Sci. USA, 1994, 91, 4569). […] The compounds of the present invention therefore appear to stimulate the activity of GABA by acting on a different site from that of α-EMTBL and related compounds, despite the apparent structural resemblance of these two classes of compounds.

[4] = test system: α2β2 GABA-A recombinant receptors; test: as above; type: cell-based; details: for % of stimulation of the GABA currents: α2β2
Experimental: as §1, §2

| Compound | affinity for receptors comprising β2 or β3 subunits relative to receptors comprising the β1 subunit [1] | % of stimulation of the GABA currents ([2]; 10 μM) | % of stimulation of the GABA currents ([2]; 100 μM) | power relative to the corresponding S isomer in stimulating GABA currents [2] | % of stimulation of the GABA currents ([3]; 10 μM) | % of stimulation of the GABA currents ([3]; 100 μM) | % of stimulation of the GABA currents ([4]; 10 μM) | times greater stimulation of the GABA currents in receptors comprising β2 subunits with respect to β1 only ([4]; 100 μM) | % of stimulation of the GABA currents ([4]; 100 μM) |
| --- | --- | --- | --- | --- | --- | --- | --- | --- | --- |
| Cl/C(=C\n1cncn1)c1ccc(Cl)cc1Cl [loreclezole] | 300 times |  |  |  |  |  |  |  |  |
| 3-(R)-Benzyloxycarbonylamino-3,3-di(C-propyl)-1,4-butyrolactone [Compound R-30] |  | +51 ± 94% | +279 ± 94% | twice as powerful | −5 ± 11% | +92 ± 28% | +78 ± 4% | 5 times | +588 ± 166% |
